# Entries after “also recorded” stand apart in the source; their conditions may differ.
# Assays:
# [1] = tested on: phospho c-Jun (JNK) in human skin; experiment: UVB-irradiated human skin, phospho c-Jun IHC (3-way crossover study); assay type: in vivo; conditions: for median subjective score of phospho c-Jun: scale 0-4, placebo score 4
# Experimental: The inhibitory effect of JNKi-1 on JNK was evaluated by assessing the status of the downstream substrate c-Jun (“cJun”) and phospho-c-Jun (or “p-cJun”) following UV irradiation of human skin.
# The study was designed as randomized, double blind, placebo controlled, multiple dose, 3-way crossover study. Fifteen subjects were randomized to one of 3 sequences (5 subjects per sequence) as outlined below (see Table 3). There was a 7-day to 10 day washout period (no more than 14 days) from the last dose of the previous period to the first dose of the next period.
# Fifteen patients enrolled, 14 completed the study and were included in the PD and PK analyses; all were healthy Caucasian male volunteers with Fitzpatrick skin type 2. The mean age was […] (20-49 years) and weight was 81 kg (64-96 kg). On the evening of Day-1, patients started fasting (at least an 8-hour fast prior to dosing on Day 1). Subjects received treatment A, B or C in Periods 1 to 3 under fasting conditions in an order based on the randomization scheme. Subjects went through the same procedures (except for the change in treatment) for all 3 periods, with the required washout in between periods. No strenuous activities were permitted during confinement. All efforts were made to keep activities, environment, food, procedures, and schedule between treatment periods identical.
# On Day 6, subjects received a 2×MED UV dose to two sites on the buttock. One punch biopsy (approximately 3 mm in diameter by 0.8 mm in depth) was taken from one of the two UV irradiated sites. The punch biopsies were taken at 8 (±5 minutes) hours post UV exposure on Day 6.
# Skin specimens from the biopsies was analyzed for phospho c-Jun and total c-Jun using IHC assay. Phospho c-Jun was quantified using a 0-4 subjective grading scales and/or objective scoring using an automated system, i.e. a laser scanning cytometer (LSC), evaluating the integrated intensity of staining measured optically.
# Biopsies were analyzed following the procedures described below to evaluate phospho c-Jun and c-Jun expression using IHC assay. The method employed to assess JNK activation was a two antibody IHC assay that employed a primary antibody, directed against the target, and a secondary antibody conjugated with a chromogenic enzyme. Thus, the method was a two-step immunohistochemical assay designed to interrogate the target, c-Jun and phospho c-Jun. Any changes in JNK activity were measurable in the amounts of these target molecules, c-Jun and phospho c-Jun. The secondary antibody-reporter conjugate deposited a red color when incubated with the substrate reaction mix, thus marking the location of the primary antibody target complex. The red color was then recorded with standard bright-field illumination using a Nikon microscope. The microscope images were then photographed and electronic images were scored (blinded) by three independent and trained scorers using the following guidelines. A score of 0 indicated staining of 0-19% of the epithelial keratinocyte nuclei; a score of 1 indicated staining of 20-39% of the epithelial keratinocyte nuclei; a score of 2 indicated staining of 40-59% of the epithelial keratinocyte nuclei; a score of 3 indicated staining of 60-79% of the epithelial keratinocyte nuclei; and a score of 4 indicated staining of 80-100% of the epithelial keratinocyte nuclei. FIG. 21 depicts representative immunostaining for the respective scores.
# For each tissue, a count of nuclei in the epithelial layer was obtained. All phospho c-Jun or c-Jun positive nuclei were counted as well as their integral (intensity). A score was calculated for each: score=(p-cJun or cJun positive nuclei×average Intensity)/Total nuclei.
# [2] = tested on: phospho-c-Jun (JNK) in EpiDermFT reconstituted human skin equivalent; experiment: UVB-stimulated JNK activation in EpiDermFT skin model (Western blot); assay type: cell-based
# Experimental: Two in vitro systems, nHEK and the EpiDermFT™ skin model, were used in this study. The nHEK cells and EpiDermFT™ samples were pretreated with JNKi-1 at concentrations of 0.1, 3, and 10 μM prior to 60 mJ/cm^2 and 135 mJ/cm^2 UVB irradiation, respectively. After UV stimulation, the activities of JNK were measured as levels of phospho-c-Jun via immunoblotting of cell lysates using an anti-phospho-c-Jun S63 antibody. Phospho-Stat3 was also evaluated as a marker of JNK activation.
# Samples were cultured in 2 mL of serum-free maintenance media (EFT-200-MM) for 72 hr. After 72 hr, the media was replaced with 2 mL of fresh media containing 0, 0.1, 3, and 10 μM of JNKi-1, respectively). Samples were allowed to soak at 37° C., 5% CO2 for 6 hr, then removed from the media and placed into 2 mL of PBS and irradiated with 135 mJ/cm^2 of UVB. Controls were sham irradiated. Samples were placed back into 2 mL of media containing JNKi-1. Samples were harvested at 30 minutes and 3 hr post UV treatment. Each sample was cut in half; one half was snap frozen in liquid nitrogen, homogenized in lysis buffer, and lysates stored at −80° C. The other half was placed in 10% neutral buffer formalin for 3 hr and transferred to 100% ethanol for processing
# cells were pre-incubated with either dimethyl sulfoxide (DMSO) (FIG. 31, lanes 1, 2, and 12 to 15) or JNKi-1 at the indicated concentration (lanes 3 to 11) for 1 hr and then irradiated without (Control, lanes 1 and 2) or with UVB at 60 mJ/cm^2 (lanes 3 to 15). Cells were lysed 30 minutes after UV irradiation and cell lysates were subjected to sodium dodecyl sulfate polyacrylamide gel electrophoresis (SDS-PAGE) before Western blotting with anti-phospho-c-Jun antibody. […]
# Western analysis: For Western blot analysis, 20 to 25 μg of total protein were applied to SDS-PAGE gels followed by electrophoresis and blotting. […] The intensity of each band was quantified by the Odyssey 2.1 software and exported into Excel for further analysis. […]
smiles,measurement,setting,value
"O[C@H]1CC[C@H](Nc2ncc3nc(Nc4c(F)cc(F)cc4F)n([C@H]4CCOC4)c3n2)CC1 [JNKi-1, 4-((9-((3S)-tetrahydro-3-furanyl)-8-((2,4,6-trifluorophenyl)amino)-9H-purin-2-yl)amino)-trans-cyclohexanol]","patients with reduced phospho c-Jun, subjective scoring",[1]; 75 mg QD x 6 days,57%
same,"patients with reduced phospho c-Jun, subjective scoring","[1]; 75 mg QD x 6 days, 2xMED UVB, biopsy 8 hours post UV",8/14
same,median subjective score of phospho c-Jun,[1]; 75 mg QD x 6 days,3
same,frequency of high phospho c-Jun subjective scores,[1]; 75 mg and 200 mg vs placebo,fewer subjects had high p-cJun scores; also recorded: fewer patients had high scores
same,phospho c-Jun by laser scanning cytometry (LSC) analysis,[1]; 75 mg or 200 mg,Decrease in phospho c-Jun was confirmed
same,"odds ratio, phospho c-Jun scores 0, 1, 2 vs. scores 3, 4 (logistic regression)",[1]; 75 mg vs. placebo,10.96
same,"patients with inhibited phospho c-Jun, subjective scoring",[1]; 200 mg QD x 6 days,78%
same,"patients with inhibited phospho c-Jun, subjective scoring","[1]; 200 mg QD x 6 days, 2xMED UVB, biopsy 8 hours post UV",11/14
same,median subjective score of phospho c-Jun,[1]; 200 mg QD x 6 days,1
same,"odds ratio, phospho c-Jun scores 0, 1, 2 vs. scores 3, 4 (logistic regression)",[1]; 200 mg vs. placebo,41.89
same,elevation of phospho c-Jun induced by the UVB irradiation,"[1]; oral, about 75 mg to about 200 mg, in a majority of patients",partially or completely inhibited
same,"phospho c-Jun immunostaining, percentage of positive epithelial nuclei, Patient 15",[1]; versus placebo,significantly decreased
same,"UVB-induced JNK activation (phospho-c-Jun level), in words","[2]; EpiDermFT, 0.1, 3, 10 μM",strongly Inhibits; also recorded: significantly blocks
same,inhibition of phospho-Stat3,"[2]; EpiDermFT, 30 minutes post UV, data not shown",minimal
same,IC50,"[2]; Homo sapiens, light or radiation study, 0.5 h, EpiDermFT, UVB 135 mJ/cm^2, lysed 30 minutes after UV, read-out: IC50 for p-cJun",100 to 3000 nM

# Reference: US8680076B2, “Methods of treatment, improvement and prevention using haloaryl substituted aminopurines” (Signal Pharmaceuticals, LLC, priority 2010, dated 2014)
